# How the values were obtained:
# Fusarium graminearum = assay: microbe, parasite or virus in culture; type: cell-based
# [1] = system: Fusarium graminearum and Fusarium asiaticum; assay: organism not typed; type: cell-based; conditions: tebuconazole 0.078 μg/mL; sensitive and fungicide-resistant strains
substance,measurement,setting,value
Tebuconazole,Median Effective Concentration (EC50) for Growth Inhibition,Fusarium graminearum; F.g carbendazim-resistant strains,0.101 µg/mL
same,Median Effective Concentration (EC50) for Growth Inhibition,Fusarium graminearum; F.g phenamacril-resistant strains,0.085 µg/mL
same,inhibitory effect on hyphal growth,[1],~50%
